# Reference: ChEMBL document CHEMBL1201862, “PubChem BioAssay data set” (2004)
#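 Cultured in 96-well plates, cells were exposed to test compound for 48 hours across five concentrations. At the GI50, growth is halved.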 Active and inactive are the calls of the source. No stated cut-off is given here; in the data, active = GI50 up to about 1.1 µM and inactive = higher.
# Columns and labels:
# Assay in all cases: inhibition of tumour cell growth, NCI panel, 48 h
# DMS-114 = tested on: DMS-114
# KM-20L2 = tested on: KM-20L2
# LXFL 529 = tested on: LXFL 529
# M19-MEL = tested on: M19-MEL
# SNB-78 = tested on: SNB-78
# XF498 = tested on: XF498
# DMS-273 = tested on: DMS-273
# HOP-18 = tested on: HOP-18
# RXF 631 = tested on: RXF 631
Structure (SMILES),GI50 (DMS-114),GI50 (KM-20L2),GI50 (LXFL 529),GI50 (M19-MEL),GI50 (SNB-78),GI50 (XF498),GI50 (DMS-273),GI50 (HOP-18),GI50 (RXF 631)
COc1ccc(/C=C2/C(=O)N(C(=O)c3ccc(Cl)cc3)N=C2C)cc1OC,> 100 µM (inactive),> 100 µM (inactive),> 100 µM (inactive),> 100 µM (inactive),> 100 µM (inactive),> 100 µM (inactive),–,–,–
CC(=O)O.CN1CCN(CN2C(=O)C3C4C=CC(C3C2=O)C2C3C(=O)N(CN5CCN(C)CC5)C(=O)C3C42)CC1 (stereo not given),20.1 µM (inactive),20.3 µM (inactive),18.1 µM (inactive),–,–,–,–,–,–
COc1ccc(/N=c2\ssc3c(=S)ssc23)cc1,0.959 µM (active),–,14.8 µM (inactive),30.2 µM (inactive),34.2 µM (inactive),–,26.4 µM (inactive),–,–
Cc1ccc(C(=O)/C=C/c2ccccc2O)c(C)c1,> 100 µM (inactive),> 100 µM (inactive),> 100 µM (inactive),1.35 µM (inactive),> 100 µM (inactive),–,> 100 µM (inactive),–,–
COc1ccccc1/C=N/N=C(\N)NO,5.78 µM (inactive),–,3.3 µM (inactive),19.8 µM (inactive),> 100 µM (inactive),–,–,48.9 µM (inactive),–
O=C1Nc2ccccc2C1(O)C/C(=N/O)c1ccc2ccccc2c1 (stereo not given),64.6 µM (inactive),> 100 µM (inactive),91.2 µM (inactive),45.5 µM (inactive),60.1 µM (inactive),93.3 µM (inactive),–,> 100 µM (inactive),29.7 µM (inactive)
CN(c1ccccc1)C(c1ccccc1)C(O)c1ccccc1 (stereo not given),20.9 µM (inactive),19.4 µM (inactive),21 µM (inactive),23.1 µM (inactive),22.6 µM (inactive),–,18.7 µM (inactive),14.9 µM (inactive),18.8 µM (inactive)
c1ccc2c(c1)[Se]c1ccccc1[Se]2,67 µM (inactive),> 100 µM (inactive),61.4 µM (inactive),> 100 µM (inactive),30.5 µM (inactive),> 100 µM (inactive),> 100 µM (inactive),4.92 µM (inactive),–
Cc1cc(NC(=O)C2C3C=CC(O3)C2C(=O)O)no1 (stereo not given),15.7 µM (inactive),13.7 µM (inactive),20.4 µM (inactive),28.1 µM (inactive),> 100 µM (inactive),> 100 µM (inactive),16.8 µM (inactive),> 100 µM (inactive),80.5 µM (inactive)
Cc1ccc(S(=O)(=O)OC2CC=CC2)cc1,> 100 µM (inactive),> 100 µM (inactive),> 100 µM (inactive),> 100 µM (inactive),> 100 µM (inactive),> 100 µM (inactive),> 100 µM (inactive),> 100 µM (inactive),–
CCOC(=O)C(C)(NC(=O)c1ccc(NCc2ccc3nc(NC(=O)c4ccccc4)nc(NC(=O)c4ccccc4)c3c2)cc1)C(=O)OCC,16.8 µM (inactive),18.4 µM (inactive),–,8.93 µM (inactive),9.23 µM (inactive),–,9.23 µM (inactive),37.8 µM (inactive),12.2 µM (inactive)
O=C1NC(=O)C(CCC(=O)c2ccc3ccccc3c2)C(=O)N1,> 100 µM (inactive),> 100 µM (inactive),> 100 µM (inactive),> 100 µM (inactive),> 100 µM (inactive),> 100 µM (inactive),> 100 µM (inactive),> 100 µM (inactive),> 100 µM (inactive)
C=CCC1(C(=O)OC(C)(C)C)C(OC)=C(C(=O)OC(C)(C)C)C2C1C(C(=O)OC(C)(C)C)=C(OC)C2(CC=C)C(=O)OC(C)(C)C (stereo not given),> 100 µM (inactive),–,–,> 100 µM (inactive),–,> 100 µM (inactive),–,> 100 µM (inactive),–
CC(=O)NNc1nc(C)c(C(=O)NNC(=O)C(=O)Nc2c([N+](=O)[O-])ccc(C)c2C)s1,> 100 µM (inactive),> 100 µM (inactive),65.2 µM (inactive),> 100 µM (inactive),> 100 µM (inactive),> 100 µM (inactive),> 100 µM (inactive),–,–
COc1cc(C2C(C(=O)O)=C(C)Oc3cc4c(cc32)OCO4)cc(OC)c1OC (stereo not given),16.2 µM (inactive),32.4 µM (inactive),–,30.8 µM (inactive),50.4 µM (inactive),42.2 µM (inactive),13.7 µM (inactive),28.8 µM (inactive),36.1 µM (inactive)
CC(O)CN1C(=O)NC(Cc2ccccc2)C1=O (stereo not given),> 100 µM (inactive),> 100 µM (inactive),> 100 µM (inactive),–,> 100 µM (inactive),> 100 µM (inactive),> 100 µM (inactive),> 100 µM (inactive),–
Cc1cc2c(c(C(N)=O)c1C)-c1ccccc1C2=O,> 100 µM (inactive),> 100 µM (inactive),> 100 µM (inactive),> 100 µM (inactive),> 100 µM (inactive),–,> 100 µM (inactive),> 100 µM (inactive),> 100 µM (inactive)
CC(=O)Nc1cc(N(CCOS(C)(=O)=O)CCOS(C)(=O)=O)ccc1N=O,> 100 µM (inactive),> 100 µM (inactive),> 100 µM (inactive),> 100 µM (inactive),–,> 100 µM (inactive),> 100 µM (inactive),–,–
COC(=O)C(=O)C(C(=O)OC)C(=O)C(=O)Nc1c(C)cccc1C (stereo not given),> 100 µM (inactive),> 100 µM (inactive),> 100 µM (inactive),> 100 µM (inactive),> 100 µM (inactive),> 100 µM (inactive),–,> 100 µM (inactive),> 100 µM (inactive)
CCN(CC)CCNc1c2ccccc2nc2cccc([N+](=O)[O-])c12,0.0241 µM (active),0.0303 µM (active),0.0211 µM (active),0.0352 µM (active),0.0993 µM (active),0.0193 µM (active),0.0358 µM (active),–,0.0317 µM (active)
OCCCOC(c1ccccc1)(c1ccccc1)c1ccccc1,> 100 µM (inactive),> 100 µM (inactive),> 100 µM (inactive),> 100 µM (inactive),38.9 µM (inactive),> 100 µM (inactive),> 100 µM (inactive),–,> 100 µM (inactive)
COc1ccc(OCC(=O)O)c(C(=O)CCC(=O)O)c1,> 100 µM (inactive),–,> 100 µM (inactive),> 100 µM (inactive),> 100 µM (inactive),> 100 µM (inactive),> 100 µM (inactive),–,> 100 µM (inactive)
COc1cccc(SSc2cccc(OC)c2C(=O)O)c1C(=O)O,> 100 µM (inactive),> 100 µM (inactive),> 100 µM (inactive),> 100 µM (inactive),> 100 µM (inactive),> 100 µM (inactive),> 100 µM (inactive),> 100 µM (inactive),> 100 µM (inactive)
O=C(CNc1ccc2c(=S)c3ccccc3[nH]c2c1)Nc1ccccc1-c1ccccc1NC(=O)CNc1ccc2c(=S)c3ccccc3[nH]c2c1,17.1 µM (inactive),19.7 µM (inactive),7.45 µM (inactive),> 39.2 µM (inactive),32.9 µM (inactive),19.1 µM (inactive),> 46 µM (inactive),16.1 µM (inactive),–
CCN(CC)CCN1C(=O)CC2[C@@H]3CCc4cc(OC)ccc4C3CC[C@]2(C)C1=O (stereo not given in full),–,20.1 µM (inactive),16.4 µM (inactive),18.7 µM (inactive),28.5 µM (inactive),–,–,–,–
CC(=O)Oc1ccc(C(c2ccc(OC(C)=O)cc2)c2ccccn2)cc1 [BISACODYL],0.57 µM (active),54.2 µM (inactive),28.8 µM (inactive),97.5 µM (inactive),–,40.1 µM (inactive),> 100 µM (inactive),> 47 µM (inactive),> 100 µM (inactive)
NCCCC(N)(C(=O)O)C(F)F (stereo not given) [EFLORNITHINE],> 5000 µM (inactive),> 5000 µM (inactive),> 100 µM (inactive),> 3450 µM (inactive),> 5000 µM (inactive),–,1220 µM (inactive),> 50 µM (inactive),> 100 µM (inactive)
